According to patent publication US3932664A, “Substituted phenoxyalkyl quaternary ammonium compounds as antiarrhythemic agents” (priority 1974, dated 1976):

Tests used:
[1] = test system: multifocal ventricular arrhythmias induced by n-hexane and epinephrine in dogs; test: protection against multifocal ventricular arrhythmias induced by n-hexane and epinephrine in dogs; type: in vivo; settings: dog, intravenous
From the text: [2-(4-Amino-2,6-dibromophenoxy)ethyl]dimethyl-(2-methylallyl)ammonium chloride is employed to alleviate multifocal ventricular arrhythmias induced by administration of n-hexane and epinephrine. In these operations, dogs are anesthetized by intravenous administration of 30 milligrams of pentobarbital sodium per kilogram. Transient ventricular arrhythmias are induced by a modification of the method of Garb and Chenowith, J. Pharmacol. Exp. Ther. 94; 12 (1948) in which the heart is sensitized by intratracheal injection of 0.04 milliliter of n-hexane per kilogram, followed in 15 seconds by rapid intravenous administration of 1-epinephrine bitrate at a dosage rate of 10 micrograms per kilogram. Such procedure produces a transient arrhythmia lasting about 10 seconds. Duration of protection by a test compound is evaluated by repeating the n-hexane and epinephrine challenge periodically and monitoring electrocardiogram and arterial blood pressure. […] When the same compound is administered at a dosage rate of 2 milligrams per kilogram, the duration of protection is found to be greater than 2 hours.
In similar operations, dosages of 5 to 10 milligrams per kilogram are found to be required to obtain similar antiarrhythmic effects when the known antiarrhythmic agent, quinidine sulfate, is employed as a test compound.

[2] = test system: electrically induced ventricular fibrillation in dogs; test: threshold for electrically induced ventricular fibrillation in electrically paced dogs; type: in vivo, dog; settings: intravenous
[3] = test system: arrhythmia after experimental coronary artery occlusion in dogs; test: abnormal complexes after experimental occlusion of the anterior descending coronary artery in dogs; type: in vivo; settings: dog
Description: An experimental occlusion of the anterior descending coronary artery is produced in dogs according to the method of Harris, Circulation 1, 1318 (1950). Following surgery the animals are given a penicillin-streptomycin preparation and allowed to recover for 18-24 hours. The animals are given 3 milligrams per kilogram of morphine sulfate as an analgetic and sedative to allow handling. Electrocardiograms are recorded both before and after administration of [2-([…])ethyl]dimethyl-(2-methylallyl)ammonium chloride to the test animals. The incidence of abnormal complexes (premature ventricular contractions and atrioventricular nodal beats) per minute is recorded as a percentage of total beats per minute. In one such operation the test compound is administered by intravenous infusion at rates of 1, 2, 2 and 2 milligrams per kilogram at intervals of 10 to 15 minutes. […] Following the last infusion of test compound the heartbeat rate is observed to have decreased from a rate of over 160 beats per minute prior to the first infusion to about 90-100 beats per minute. The incidence of ectopic beats at this time has decreased from a pre-treatment level of 100 percent abnormal beats per minute to below 60 percent, reaching zero (100 percent normal beats) within about 10 minutes after the last infusion. The lower heartbeat rate and low incidence of abnormal beats (generally 0 to 20 percent of the total beats per minute are abnormal) is found to persist for 2 hours following the last infusion of test compound, at which time the experiment is terminated.
In similar operations, the same test compound is infused at dosages of 1, 2 and 4 milligrams per kilogram at intervals over a forty minute period. Prior to infusion the incidence of abnormal beats is 100 percent. […] The incidence of abnormal beats is found to remain at zero with occasional brief periods of slight arrhythmia (2-5 percent abnormal beats) for 2.5 hours following the last dosage of the test compound, when recording is terminated.
In a similar operation the [2-([…])ethyl]dimethyl(2-methylallyl)ammonium chloride is administered orally in gelatin capsules. The test compound is administered in multiple dosages of 30, 30 and 50 milligrams per kilogram over a period of 150 minutes. […] Antiarrhythmic effects continue to be observed until the recording is terminated 140 minutes after the last dose of test compound.

[4] = blood and heart levels in rabbits after oral and intravenous administration; type: in vivo; settings: rabbit
[5] = acute oral toxicity in mice; settings: mouse, in vivo, single oral dose
Description: An aqueous solution of [2-(4-amino-2,6-dibromophenoxy)ethyl]dimethyl (2-methylallyl)ammonium chloride is administered orally to several groups of male and female Sprague-Dawley derived rats and male and female Swiss mice (Cox strain). The compound is administered as single oral dosages in varying amounts, and the animals are held to assess toxicity twenty-four hours after administration of the compound.

[6] = iv infusion, following the first infusion (1 mg/kg)

C=C(C)C[N+](C)(C)CCOc1c(Br)cc(N)cc1Br.[Cl-] [Example 1, [2-(4-amino-2,6-dibromophenoxy)ethyl]-dimethyl(2-methylallyl)ammonium chloride]
duration of protection ([1]; 2 mg/kg): greater than 2 hours
duration of antiarrhythmic effect ([1]; one mg/kg): about 1 hour
protection against the arrhythmias ([1]; one mg/kg): excellent protection
increase in threshold for electrically induced ventricular fibrillation [2]: substantial increases
time after last infusion to substantially complete conversion to sinus rhythm ([3]; infused 1, 2 and 4 mg/kg over forty minutes): eight
conversion to sinus rhythm ([3]; infused 1, 2 and 4 mg/kg over forty minutes, incidence of abnormal beats 100 percent before): substantially complete conversion to sinus rhythm
time for which incidence of abnormal beats remains at zero (with occasional slight arrhythmia) ([3]; infused 1, 2 and 4 mg/kg, following last dosage, recording then terminated): ≥ 2.5 h
incidence of abnormal beats ([3]; infused 1, 2 and 4 mg/kg, for 2.5 hours following the last dosage): zero
anti-arrhythmic effects on resumption of recording ([3]; infused 1, 2 and 4 mg/kg, recording resumed 215 minutes later): significant anti-arrhythmic effects are still exhibited
abnormal beats during occasional brief periods of slight arrhythmia ([3]; infused 1, 2 and 4 mg/kg, within 2.5 hours following the last dosage): 2-5%
time after last infusion to zero ectopic beats (100 percent normal beats) ([3]; iv 1, 2, 2 and 2 mg/kg): ≤ 10 min
persistence of lower heartbeat rate and low incidence of abnormal beats ([3]; iv 1, 2, 2 and 2 mg/kg, following last infusion, experiment terminated at that time): ≥ 2 h
heartbeat rate ([3]; iv 1, 2, 2 and 2 mg/kg, following last infusion, over 160 beats per minute prior to first infusion, in beats/min): 90-100
incidence of ectopic beats (percent abnormal beats per minute) ([3]; iv 1, 2, 2 and 2 mg/kg, following last infusion, pre-treatment 100 percent): below 60%
incidence of ectopic beats ([3]; iv 1, 2, 2 and 2 mg/kg, within about 10 minutes after the last infusion): zero
change in percentage of abnormal beats per minute [3, 6]: concomitant decrease
heart beat rate change [3, 6]: marked decrease
antiarrhythmic effects of the second and third doses ([3]; oral 30, 30 and 50 mg/kg): further and more consistent antiarrhythmic effects
time after last dose to periods with less than 10 percent abnormal beats ([3]; oral 30, 30 and 50 mg/kg): about 25 minutes
abnormal beats (periods in electrocardiogram) ([3]; oral 30, 30 and 50 mg/kg, beginning about 25 minutes after last dose, interspersed with occasional arrhythmia): less than 10%
time after last dose over which antiarrhythmic effects continue to be observed ([3]; oral 30, 30 and 50 mg/kg, recording then terminated): ≥ 140 min
time after first dosage to periods of reduced frequency of abnormal heart beats ([3]; oral gelatin capsules, 30, 30 and 50 mg/kg over 150 minutes): 10 min
oral absorption [4]: indicate oral absorption
LD50 at 24 h ([5]; female mice): 550 mg/kg
LD50 at 24 h ([5]; male mice): 560 mg/kg
